Assay results reported in patent US8883797B2, “Metalloenzyme inhibitor compounds” (Viamet Pharmaceuticals, Inc., priority 2011, dated 2014).
Values after ≈ are worked out from the molar mass of the structure shown.

Each compound was assayed on Septoria tritici (ATCC 26517) (assay: Minimum Inhibitory Concentration (MIC) (Septoria tritici), CLSI-based microdilution). Conditions: Zymoseptoria tritici, ATCC26517, 168 h; S. tritici ATCC 26517; 50% growth reduction; 7 days at 22 °C; read-out: Septoria Rating (MIC).
Format: cell-based
Experimental: C. Minimum Inhibitory Concentration (MIC) (Septoria tritici) Compounds of the present disclosure were assessed for their ability to inhibit the growth of a common strain of the fungal plant pathogen Septoria tritici (ATCC 26517) using a procedure based on a Clinical and Laboratory Standards Institute (CLSI) microdilution assay protocol for filamentous fungi. Stock solutions of the test compounds and standards were prepared in DMSO at 6400 μg/mL. Each stock solution was used to prepare a 2-fold dilution series ranging from 16 to 0.016 μg/mL (total of 11 compound concentrations) in RPMI-1640 (Roswell Park Memorial Institute) medium containing 3-(N-morpholino)propanesulfonic acid (MOPS) buffer and 2% DMSO. A 100 μL aliquot of the dilutions was added to columns 1 (16 μg/mL compound) through 11 (0.016 μg/mL compound) of a 96-well microtiter plate. This format was replicated in a second row of the microtiter plate. Thus, each microtiter plate could include 11 concentrations of four test or control compounds replicated twice. A 100 μL aliquot of RPMI-1640/MOPS/2% DMSO medium was added to column 12 (no compound control) of the microtiter plate. A fresh culture of S. tritici was used to prepare a solution of approximately 5×10^4 colony-forming units per milliliter (cfu/mL) in RPMI/MOPS medium without DMSO. A 100 μL aliquot of this solution was added to all 96 wells in the microtiter plate. […] The assay plates were incubated at 22° C. for seven days in the dark without shaking. […] In each case of Table 3 the rating scale is as follows: […]

| MIC | SMILES |
| --- | --- |
| ≤ 0.5 µg/mL | OC(Cn1cnnn1)(c1ccc(Cl)cc1F)C(F)(F)c1ccc2cc(Cl)ccc2n1 (stereo not drawn) [8(−), 2-(4-Chloro-2-fluorophenyl)-1-(6-chloroquinolin-2-yl)-1,1-difluoro-3-(1H-tetrazol-1-yl)propan-2-ol] |
| 1.5 to 4 µg/mL (≈ 3.42 to 9.13 µM) | OC(Cn1cnnn1)(c1ccc(F)cc1F)C(F)(F)c1nc(Br)cs1 (centres unmarked) [Compound 2, 1-(4-Bromothiazol-2-yl)-2-(2,4-difluorophenyl)-1,1-difluoro-3-(1H-tetrazol-1-yl)propan-2-ol] |
| ≤ 0.5 µg/mL | OC(Cn1cnnn1)(c1ccc(F)cc1F)C(F)(F)c1nc2ccccc2s1 (centres unmarked) [Compound 6, 1-(Benzo[d]thiazol-2-yl)-2-(2,4-difluorophenyl)-1,1-difluoro-3-(1H-tetrazol-1-yl)propan-2-ol] |
| > 4 µg/mL | OC(Cn1cnnn1)(c1ccc(F)cc1F)C(F)(F)c1nccs1 (centres unmarked) [Compound 12, 2-(2,4-Difluorophenyl)-1,1-difluoro-3-(1H-tetrazol-1-yl)-1-(thiazol-2-yl)propan-2-ol] |
| 0.5 to 1.5 µg/mL (≈ 1.4 to 4.19 µM) | OC(Cn1cnnn1)(c1ccc(F)cc1F)C(F)(F)c1cccs1 (centres unmarked) [Compound 14, 2-(2,4-Difluorophenyl)-1,1-difluoro-3-(1H-tetrazol-1-yl)-1-(thiophen-2-yl)propan-2-ol] |
| 1.5 to 4 µg/mL (≈ 3.47 to 9.26 µM) | COc1ccc(C(O)(Cn2cnnn2)C(F)(F)c2ccc3cc(Cl)ccc3n2)cc1 (centres unmarked) [Compound 15, 1-(6-Chloroquinolin-2-yl)-1,1-difluoro-2-(4-methoxyphenyl)-3-(1H-tetrazol-1-yl)propan-2-ol] |
| 0.5 to 1.5 µg/mL (≈ 1.14 to 3.43 µM) | OC(Cn1ncnn1)(c1ccc(F)cc1F)C(F)(F)c1ccc2cc(Cl)ccc2n1 (centres unmarked) [Compound 16, 1-(6-Chloroquinolin-2-yl)-2-(2,4-difluorophenyl)-1,1-difluoro-3-(2H-tetrazol-2-yl)propan-2-ol] |
| ≤ 0.5 µg/mL | OC(Cn1cnnn1)(c1ccc(F)cc1F)C(F)(F)c1ccc2cc(F)ccc2n1 (centres unmarked) [Compound 17, 2-(2,4-Difluorophenyl)-1,1-difluoro-1-(6-fluoroquinolin-2-yl)-3-(1H-tetrazol-1-yl)propan-2-ol] |
| 0.5 to 1.5 µg/mL (≈ 0.997 to 2.99 µM) | OC(Cn1cnnn1)(c1ccc(F)cc1F)C(F)(F)c1ccc2cc(OCC(F)(F)F)ccc2n1 (centres unmarked) [Compound 19, 2-(2,4-Difluorophenyl)-1,1-difluoro-3-(1H-tetrazol-1-yl)-1-(6-(2,2,2-trifluoroethoxy)quinolin-2-yl)propan-2-ol] |
| 0.5 to 1.5 µg/mL (≈ 1.03 to 3.08 µM) | OC(Cn1cnnn1)(c1ccc(C(F)(F)F)cc1F)C(F)(F)c1ccc2cc(Cl)ccc2n1 (centres unmarked) [Compound 20, 1-(6-Chloroquinolin-2-yl)-1,1-difluoro-2-(2-fluoro-4-(trifluoromethyl)phenyl)-3-(1H-tetrazol-1-yl)propan-2-ol] |
| 1.5 to 4 µg/mL (≈ 2.97 to 7.93 µM) | OC(Cn1cnnn1)(c1ccc(C(F)(F)F)cc1Cl)C(F)(F)c1ccc2cc(Cl)ccc2n1 (centres unmarked) [Compound 22, 2-(2-Chloro-4-(trifluoromethyl)phenyl)-1-(6-chloroquinolin-2-yl)-1,1-difluoro-3-(1H-tetrazol-1-yl)propan-2-ol] |
| ≤ 0.5 µg/mL | OC(Cn1cnnn1)(c1ccc(F)c(F)c1)C(F)(F)c1ccc2cc(Cl)ccc2n1 (centres unmarked) [Compound 23, 1-(6-Chloroquinolin-2-yl)-2-(3,4-difluorophenyl)-1,1-difluoro-3-(1H-tetrazol-1-yl)propan-2-ol] |
| ≤ 0.5 µg/mL | N#Cc1ccc2nc(C(F)(F)C(O)(Cn3cnnn3)c3ccc(F)cc3F)ccc2c1 (centres unmarked) [Compound 24, 2-(2-(2,4-Difluorophenyl)-1,1-difluoro-2-hydroxy-3-(1H-tetrazol-1-yl)propyl)quinoline-6-carbonitrile] |
| ≤ 0.5 µg/mL | OC(Cn1cnnn1)(c1ccc(F)cc1F)C(F)(F)c1ccc2c(Cl)c(Cl)ccc2n1 (centres unmarked) [Compound 29, 1-(5,6-Dichloroquinolin-2-yl)-2-(2,4-difluorophenyl)-1,1-difluoro-3-(1H-tetrazol-1-yl)propan-2-ol] |
| 1.5 to 4 µg/mL (≈ 2.99 to 7.98 µM) | OC(Cn1cnnn1)(c1ccc(F)cc1F)C(F)(F)c1ccc2c(OCC(F)(F)F)cccc2n1 (centres unmarked) [Compound 30, 2-(2,4-Difluorophenyl)-1,1-difluoro-3-(1H-tetrazol-1-yl)-1-(5-(2,2,2-trifluoroethoxy)quinolin-2-yl)propan-2-ol] |
| 1.5 to 4 µg/mL (≈ 3.43 to 9.14 µM) | OC(Cn1cnnn1)(c1ccc(F)cc1F)C(F)(F)c1ccc2c(Cl)cccc2n1 (centres unmarked) [Compound 31, 1-(5-Chloroquinolin-2-yl)-2-(2,4-difluorophenyl)-1,1-difluoro-3-(1H-tetrazol-1-yl)propan-2-ol] |

| MIC | SMILES |
| --- | --- |
| 1.5 to 4 µg/mL (≈ 3.43 to 9.16 µM) | OC(Cn1cnnc1)(c1ccc(F)cc1F)C(F)(F)c1ccc2cc(Cl)ccc2n1 (centres unmarked) [Compound 35, 1-(6-Chloroquinolin-2-yl)-2-(2,4-difluorophenyl)-1,1-difluoro-3-(4H-1,2,4-triazol-4-yl)propan-2-ol] |
| 1.5 to 4 µg/mL (≈ 2.84 to 7.58 µM) | OC(Cn1cnnn1)(c1ccc(F)cc1F)C(F)(F)c1ccc(-c2ccc(OCC(F)(F)F)cc2)nc1 (centres unmarked) [Compound 36, 2-(2,4-Difluorophenyl)-1,1-difluoro-3-(1H-tetrazol-1-yl)-1-(6-(4-(2,2,2-trifluoroethoxy)phenyl)pyridin-3-yl)propan-2-ol] |
| 0.5 to 1.5 µg/mL (≈ 1.08 to 3.23 µM) | OC(Cn1cnnn1)(c1ccc(F)cc1F)C(F)(F)c1cnc(-c2ccc(Cl)cc2)cn1 (centres unmarked) [Compound 40, 1-(5-(4-Chlorophenyl)pyrazin-2-yl)-2-(2,4-difluorophenyl)-1,1-difluoro-3-(1H-tetrazol-1-yl)propan-2-ol] |
| ≤ 0.5 µg/mL | OC(Cn1cnnn1)(c1ccc(F)cc1F)C(F)(F)c1cnc(-c2ccc(OCC(F)(F)F)cc2)cn1 (centres unmarked) [Compound 41, 2-(2,4-Difluorophenyl)-1,1-difluoro-3-(1H-tetrazol-1-yl)-1-(5-(4-(2,2,2-trifluoroethoxy)phenyl)pyrazin-2-yl)propan-2-ol] |
| 0.5 to 1.5 µg/mL (≈ 1.07 to 3.22 µM) | OC(Cn1cnnn1)(c1ccc(F)cc1F)C(F)(F)c1cnc(-c2ccc(F)c(F)c2)cn1 (centres unmarked) [Compound 44, 2-(2,4-Difluorophenyl)-1-(5-(3,4-difluorophenyl)pyrazin-2-yl)-1,1-difluoro-3-(1H-tetrazol-1-yl)propan-2-ol] |
| 1.5 to 4 µg/mL (≈ 3.02 to 8.06 µM) | OC(Cn1cnnn1)(c1ccc(F)cc1)C(F)(F)c1cnc(-c2ccc(OC(F)(F)F)cc2)cn1 (centres unmarked) [Compound 45, 1,1-Difluoro-2-(4-fluorophenyl)-3-(1H-tetrazol-1-yl)-1-(5-(4-(trifluoromethoxy)phenyl)pyrazin-2-yl)propan-2-ol] |
| 0.5 to 1.5 µg/mL (≈ 1.12 to 3.35 µM) | OC(Cn1cnnn1)(c1ccc(F)cc1F)C(F)(F)c1cnc(-c2ccc(F)cc2)cn1 (centres unmarked) [Compound 46, 2-(2,4-Difluorophenyl)-1,1-difluoro-1-(5-(4-fluorophenyl)pyrazin-2-yl)-3-(1H-tetrazol-1-yl)propan-2-ol] |
| > 4 µg/mL | OC(Cn1ncnn1)(c1ccc(F)cc1F)C(F)(F)c1cnc(-c2ccc(F)cc2)cn1 (centres unmarked) [Compound 47, 2-(2,4-Difluorophenyl)-1,1-difluoro-1-(5-(4-fluorophenyl)pyrazin-2-yl)-3-(2H-tetrazol-2-yl)propan-2-ol] |
| ≤ 0.5 µg/mL | OC(Cn1cnnn1)(c1ccc(F)cc1F)C(F)(F)c1cnc(C#Cc2ccc(F)cc2)cn1 (centres unmarked) [Compound 50, 2-(2,4-Difluorophenyl)-1,1-difluoro-1-(5-((4-fluorophenyl)ethynyl)pyrazin-2-yl)-3-(1H-tetrazol-1-yl)propan-2-ol] |
| 1.5 to 4 µg/mL (≈ 3.18 to 8.47 µM) | OC(Cn1ncnn1)(c1ccc(F)cc1F)C(F)(F)c1cnc(C#Cc2ccc(F)cc2)cn1 (centres unmarked) [Compound 51, 2-(2,4-difluorophenyl)-1,1-difluoro-1-(5-((4-fluorophenyl)ethynyl)pyrazin-2-yl)-3-(2H-tetrazol-2-yl)propan-2-ol] |
| 1.5 to 4 µg/mL (≈ 3.15 to 8.4 µM) | OC(Cn1ncnn1)(c1ccc(F)cc1F)C(F)(F)c1cnc(CCc2ccc(F)cc2)cn1 (centres unmarked) [Compound 53, 2-(2,4-Difluorophenyl)-1,1-difluoro-1-(5-(4-fluorophenethyl)pyrazin-2-yl)-3-(2H-tetrazol-2-yl)propan-2-ol] |
| 1.5 to 4 µg/mL (≈ 3.07 to 8.19 µM) | OC(Cn1cnnn1)(c1ccc(F)cc1F)C(F)(F)c1cnc2cc(OC(F)(F)F)ccc2n1 (centres unmarked) [Compound 54, 2-(2,4-Difluorophenyl)-1,1-difluoro-3-(1H-tetrazol-1-yl)-1-(6-(trifluoromethoxy)quinoxalin-2-yl)propan-2-ol] |
| 1.5 to 4 µg/mL (≈ 3.55 to 9.47 µM) | OC(Cn1cnnn1)(c1ccc(F)cc1F)C(F)(F)c1cnc2cc(F)ccc2n1 (centres unmarked) [Compound 55, 2-(2,4-Difluorophenyl)-1,1-difluoro-1-(6-fluoroquinoxalin-2-yl)-3-(1H-tetrazol-1-yl)propan-2-ol] |
| 1.5 to 4 µg/mL (≈ 3.35 to 8.92 µM) | OC(Cn1cnnn1)(c1ccc(F)cc1F)C(F)(F)c1ccc(-c2ccc(F)cc2)nn1 (centres unmarked) [Compound 58, 2-(2,4-Difluorophenyl)-1,1-difluoro-1-(6-(4-fluorophenyl)pyridazin-3-yl)-3-(1H-tetrazol-1-yl)propan-2-ol] |
| 0.5 to 1.5 µg/mL (≈ 1.16 to 3.49 µM) | C=Cc1ccc2nc(C(F)(F)C(O)(Cn3cnnn3)c3ccc(F)cc3F)cnc2c1 (centres unmarked) [Compound 59, 2-(2,4-Difluorophenyl)-1,1-difluoro-3-(1H-tetrazol-1-yl)-1-(6-vinylquinoxalin-2-yl)propan-2-ol] |

| SMILES | MIC |
| --- | --- |
| OC(Cn1cnnn1)(c1ccc(F)cc1F)C(F)(F)c1cnc2cc(Cl)ccc2n1 (stereo not drawn) [10(−), 1-(6-Chloroquinoxalin-2-yl)-2-(2,4-difluorophenyl)-1,1-difluoro-3-(1H-tetrazol-1-yl)propan-2-ol] | ≤ 0.5 µg/mL |
